Here are results for 2 compounds from US11160806B2, “Salt of N-(2,6-diethylphenyl)-8-({4-[4-(dimethylamino) piperidin-1-yl]-2-methoxyphenyl}amino)-1-methyl-4,5-dihydro-1H-pyrazolo[4,3-h]quinazoline-3-carboxamide, its preparation, and formulations containing it” (LES LABORATOIRES SERVIER, priority 2017, dated 2021).

A short description of data set [1]: Solubility of phosphate salt crystalline form I in water (WFI) or NaCl 0.9% at room temperature, HPLC. Conditions: for Solubility 1 hour / Solubility 24 hours: room temperature. It is filed as physicochemical. The procedure:
Testing conditions: about 730 mg of testing compound were suspended in 4 ml of WFI (water for injection) or Saline (0.9% NaCl) to test a target solubility of 150 mg/ml as free base. The suspensions were magnetically stirred for 24 hours at room temperature and protected from light in amber glass vial. Testing compound concentrations were determined after 1 and 24 hours.

Data set [2] in a line: Hygroscopicity by Dynamic Vapour Sorption. It is filed as physicochemical. The method, then:
The compound to be tested is submitted to hygroscopicity test by means of a Dynamic Vapour Sorption apparatus (DVS 1000—Surface Measurement Systems).
The apparatus is briefly defined as a “controlled atmosphere microbalance” where the weighed sample is exposed to variations of the relative humidity (RH) at a constant and controlled temperature. An exactly weighed amount of the product (generally 5-10 mg) was analysed.

Data set [3] in a line: Stability over time under denaturing conditions (40° C./75% RH), chemical purity. The format is physicochemical. The method, then: The compound of formula (II) according to the invention has a good stability over time under denaturing conditions (40° C./75% Relative Humidity (RH)): […]
Data set [4] in a line: Preliminary solubility test, in situ salt formation from the amorphous base in water at room temperature. It is filed as physicochemical.
A short description of data set [5]: Purity and stability under long term conditions. The format is physicochemical. An excerpt:
Purity and stability of N-(2,6-diethylphenyl)-8-({4-[4-(dimethylamino) piperidin-1-yl]-2-methoxy phenyl}amino)-1-methyl-4,5-dihydro-1H-pyrazolo[4,3-h]quinazoline-3-carboxamide phosphate Form I have been tested under long term conditions as follows: […]

Data set [6] addresses T1, MPS1 (Monopolar Spindle 1) kinase, also known as TTK (Homo sapiens, UniProt P33981).
T1 sequence (P33981 1-857): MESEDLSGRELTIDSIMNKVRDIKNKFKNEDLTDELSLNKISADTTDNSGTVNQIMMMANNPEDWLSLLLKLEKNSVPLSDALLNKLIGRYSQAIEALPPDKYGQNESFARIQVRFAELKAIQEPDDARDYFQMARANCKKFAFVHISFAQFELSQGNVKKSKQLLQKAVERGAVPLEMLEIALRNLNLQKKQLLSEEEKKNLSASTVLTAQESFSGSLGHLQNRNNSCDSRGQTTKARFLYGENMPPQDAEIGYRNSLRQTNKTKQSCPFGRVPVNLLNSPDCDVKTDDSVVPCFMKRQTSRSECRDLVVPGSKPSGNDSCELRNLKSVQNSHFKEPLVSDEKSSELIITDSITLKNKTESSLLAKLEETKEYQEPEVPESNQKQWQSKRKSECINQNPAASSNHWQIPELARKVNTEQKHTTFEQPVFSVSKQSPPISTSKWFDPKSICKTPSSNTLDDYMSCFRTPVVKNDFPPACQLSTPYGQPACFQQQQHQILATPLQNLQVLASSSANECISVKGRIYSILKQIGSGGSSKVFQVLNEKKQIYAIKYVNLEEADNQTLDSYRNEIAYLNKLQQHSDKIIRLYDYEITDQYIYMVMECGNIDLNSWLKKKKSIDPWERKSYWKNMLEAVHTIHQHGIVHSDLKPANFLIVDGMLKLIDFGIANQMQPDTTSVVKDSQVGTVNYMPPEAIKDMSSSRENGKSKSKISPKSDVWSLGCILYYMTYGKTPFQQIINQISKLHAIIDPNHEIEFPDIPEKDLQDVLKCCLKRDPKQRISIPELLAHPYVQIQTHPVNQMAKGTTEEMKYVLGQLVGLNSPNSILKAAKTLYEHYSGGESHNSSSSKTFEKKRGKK
Conditions: cited from earlier work.

Where only a bound is given, the exact number is not on record here.

Regarding `CCc1cccc(CC)c1NC(=O)c1nn(C)c2c1CCc1cnc(Nc3ccc(N4CCC(N(C)C)CC4)cc3OC)nc1-2.O=P(O)(O)O` [Phosphate salt, N-(2,6-diethylphenyl)-8-({4-[4-(dimethylamino)piperidin-1-yl]-2-methoxyphenyl}amino)-1-methyl-4,5-dihydro-1H-pyrazolo[4,3-h]quinazoline-3-carboxamide phosphate], the “Solubility 1 hour” value amounted to 81.0 mg/ml as free base in data set [1] (NaCl 0.9%) and 87.5 mg/ml as free base in data set [1] (water). Besides, the results for the “Solubility 24 hours” value in data set [1] (NaCl 0.9%) and in data set [1] (water) were 133.6 mg/ml as free base and 130.2 mg/ml as free base, respectively. In data set [1] (both in water and in NaCl 0.9%), the “Solubility at room temperature” value is listed as “at least 130 mg/ml expressed as free base”. The Water uptake at 30% RH in data set [2] came to 0.4%. Besides, the Water uptake at 60% RH in data set [2] was 1%. For the same compound, the Water uptake at 90% RH in data set [2] was 2.5%. Further, the Chemical purity in data set [3] (1 month 40° C./75% RH Open bottle) was determined as 99.4%; in data set [3] (t0), 99.5%. Besides, the “Improvement of solubility versus the free base” value in data set [4] is on record as “at least 24 000 times”. The “Improvement of solubility versus the hydrochloride salt” value in data set [4] is reported as “at least 25 times”. For the same compound, the Appearance result in data set [5] (1 month 5° C.), in data set [5] (1 month 25° C./60% RH), in data set [5] (3 months 5° C.), in data set [5] (3 months 25° C./60% RH), in data set [5] (9 months 5° C.) and in data set [5] (12 months 5° C.) was “Yellow” throughout. Moreover, the Appearance result in data set [5] (24 months 5° C.) and in data set [5] (t0) was “Yellow” in each case. Further, the Drug substance turned out to be 99.94% in data set [5] (1 month 5° C.); 99.93% in data set [5] (1 month 25° C./60% RH); 99.93% in data set [5] (3 months 5° C.); 99.93% in data set [5] (3 months 25° C./60% RH); 99.93% in data set [5] (9 months 5° C.); 99.94% in data set [5] (12 months 5° C.). For the same compound, the Drug substance is on record as 99.91% in data set [5] (24 months 5° C.) and 99.94% in data set [5] (t0). The “Total amount of impurities” value turned out to be 0.06% in data set [5] (1 month 5° C.); 0.07% in data set [5] (1 month 25° C./60% RH); 0.07% in data set [5] (3 months 5° C.); 0.07% in data set [5] (3 months 25° C./60% RH); 0.07% in data set [5] (9 months 5° C.); 0.06% in data set [5] (12 months 5° C.). Moreover, the “Total amount of impurities” value stood at 0.09% in data set [5] (24 months 5° C.) and 0.06% in data set [5] (t0). Besides, the “Crystalline Form (XRD assessment)” value in data set [5] (12 months 5° C.), in data set [5] (24 months 5° C.) and in data set [5] (t0) was “Form I” each time. Moreover, the “Time over which the substance is stable” value in data set [5] (long term conditions) was ≥ 24 months.
With `CCc1cccc(CC)c1NC(=O)c1nn(C)c2c1CCc1cnc(Nc3ccc(N4CCC(N(C)C)CC4)cc3OC)nc1-2` [Free Base, N-(2,6-diethylphenyl)-8-({4-[4-(dimethylamino)piperidin-1-yl]-2-methoxyphenyl}amino)-1-methyl-4,5-dihydro-1H-pyrazolo[4,3-h]quinazoline-3-carboxamide], in data set [1] (water), the “Solubility 1 hour” value is on record as <0.001 mg/ml as free base and the “Solubility 24 hours” value was <0.001 mg/ml as free base. In data set [2], this compound had a Water uptake at 30% RH of 0.4%, a Water uptake at 60% RH of 1% and a Water uptake at 90% RH of 2.8%. Further, in data set [4] (water, 1 hour), the “Solubility 1 hour” value is listed as <0.001 mg/ml as free base. In data set [4] (water, 24 hours), the “Solubility 24 hours” value was <0.001 mg/ml as free base. Also, the “Ability to inhibit MPS1 kinase” value in data set [6] is given as “has the ability to inhibit MPS1”.
